Assay results: ChEMBL document CHEMBL1201862, “PubChem BioAssay data set” (2004)
Active and inactive are the calls of the source.

How the values were obtained:
[1] = inhibitors acting on PAX2 in cells – cell-based, plate reader, dry powder samples, selectivity assay for PAX8 inhibitor project, dose response (AID 743048); type: functional;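 further: HEK293 cells carrying a WT1 promoter luciferase reporter driven by expressed Pax2; potency is for inhibition of Pax2 driven reporter signal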
[2] = system: INS1; assay: INS-1E survival protection against cytokine death – cell-based, luminescence, retest, dose response (AID 449756); type: functional; settings: Rattus norvegicus, INS1;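 further: cell death triggered by IL-1 beta plus TNF-alpha plus IFN-gamma mixture; protective hits raise ATP signal compared with cytokine alone wells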
[3] = OVCAR-3 cell viability loss – plate reader, dry powder samples, PAX8 inhibitor project, dose response (AID 743044); type: functional, cell-based
[4] = biological target: T1, Heat shock factor protein 1 (Mus musculus, UniProt P38532); assay: enhancement of HSF1-driven luciferase signal – cell-based, NIH3T3, luminescence, dose retest, confirmation (AID 435004); type: functional;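 further: stress induced by proteasome inhibitor MG132 added 30 min after compound; luciferase reporter driven by HSF1 response element in NIH3T3 cells; actives raise luminescence as potentiators of the MG132 stress response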
T1 sequence (P38532 whole entry): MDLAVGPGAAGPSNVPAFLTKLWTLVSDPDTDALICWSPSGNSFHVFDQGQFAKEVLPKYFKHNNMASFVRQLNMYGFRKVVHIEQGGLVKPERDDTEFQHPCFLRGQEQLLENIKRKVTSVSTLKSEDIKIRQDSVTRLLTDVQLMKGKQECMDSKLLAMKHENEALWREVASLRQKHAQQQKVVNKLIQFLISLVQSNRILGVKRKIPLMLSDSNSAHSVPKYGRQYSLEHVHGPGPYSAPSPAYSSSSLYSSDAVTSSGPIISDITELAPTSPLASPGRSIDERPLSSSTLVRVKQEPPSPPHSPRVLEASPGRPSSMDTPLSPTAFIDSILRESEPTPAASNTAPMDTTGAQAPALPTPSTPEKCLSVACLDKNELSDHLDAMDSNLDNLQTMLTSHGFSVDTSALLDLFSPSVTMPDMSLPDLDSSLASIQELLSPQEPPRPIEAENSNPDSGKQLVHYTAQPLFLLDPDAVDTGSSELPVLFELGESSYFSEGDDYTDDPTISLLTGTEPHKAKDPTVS

[5] = biological target: Paired box protein Pax-8 (Homo sapiens, UniProt Q06710); assay: PAX8 transcriptional activity inhibition in RMG-I – RMG-I cells, luciferase, cherry-pick, dose response (AID 687027); type: functional, cell-based;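 further: luciferase reporter driven by Pax8 target thyroperoxidase promoter measured by SteadyGlo luminescence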
[6] = PAX5 cellular inhibition readout – cell-based, plate reader, dry powder samples, selectivity assay for PAX8 inhibitor project, dose response (AID 743047); type: functional;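 further: HEK293 cells carrying a Pax5 driven CD19 promoter luciferase reporter; potency of inhibitors that lower reporter luminescence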
[7] = IGROV1 cell killing – plate reader, dry powder samples, PAX8 inhibitor project, dose response (AID 743043); type: functional, cell-based; settings: IGROV-1
[8] = COV434 cell viability loss – plate reader, dry powder, SA7, cytotoxicity control for PAX8 inhibitor project, dose response (AID 743145); type: functional, cell-based
[9] = PAX8-dependent cell viability loss – plate reader, dry powder, dose response (AID 743049); type: functional, cell-based
[10] = alpha-synuclein stem-loop luciferase translation blockers – H4 neuroglioma cells, luminescence, confirmation (AID 1988); type: functional, cell-based
[11] = biological target: T2, Disintegrin and metalloproteinase domain-containing protein 17 (Homo sapiens, UniProt P78536); assay: exosite inhibitors of ADAM17, dose response, biochemical (AID 743260)
[12] = inhibition of ADAM10 peptide cleavage – biochemical, FRET peptide substrate, recombinant human ADAM10, selectivity assay for ADAM17 exosite inhibitor project, dose response (AID 743259);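 further: ADAM10 enzyme cleaving a FRET peptide substrate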
[13] = Luminescence Cell-Based Dose Response HTS to Identify Inhibitors of 5'UTR Stem-Loop Driven Prion Protein mRNA Translation in H4 Neuroglioblastoma Cells. [Related pubchem assays: 1827 (Project Summary), 1813 (Primary HTS)]; type: functional
[14] = luciferase reporter signal suppression in cells – H4 neuroglioma cells, luminescence, dose response (AID 1990); type: functional, cell-based
[15] = system: Vero; assay: cells; type: functional, cell-based; settings: Chlorocebus sabaeus
[16] = viability of uninfected HEp-2 cells – cell-based, HTS, cytotoxicity control for RSV inhibitor project, dose response (AID 2410); type: functional; settings: human respiratory syncytial virus
[17] = system: Vero; assay: cells; type: functional; settings: Chlorocebus sabaeus
[18] = viability loss in MITF-independent A375 cells – cell-based, CellTiter-Glo luminescence, dry powder, set 2, counter-screen for MITF inhibitor project, dose response (AID 624489); type: functional; settings: A-375;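 further: actives are compounds lowering A375 viability meaning general cytotoxicity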
[19] = cytotoxicity in MITF-independent A375 cells – cell-based, CellTiter-Glo luminescence, dry powder, set 4, counter-screen for MITF inhibitor project, dose response (AID 624364); type: functional; settings: A-375;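 further: A375 melanoma cells are MITF independent so this is a counter screen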
[20] = potency of ADAM10 substrate cleavage blockers – biochemical, QFRET, dose response (AID 743254);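 further: ADAM10 enzyme with the DM2 quenched FRET peptide as substrate; EDANS fluorescence gain as the protease cuts the substrate; inhibitor potency against ADAM10 proteolytic activity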
[21] = biological target: T2, Disintegrin and metalloproteinase domain-containing protein 17; assay: inhibition of ADAM17 substrate cleavage – biochemical, quenched FRET substrate, counter-screen for ADAM10 exosite inhibitor project, dose response (AID 743253)
[22] = biological target: T3, Oxysterols receptor LXR-beta (Homo sapiens, UniProt P55055); type: functional, cell-based;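 further: Cell-based luminescence dose-response assay of agonist activity at LXR, run as a confirmatory counterscreen to a daf-12 agonist screen; HEK293 cells with Gal4-LXR fusion and GAL4-driven luciferase reporter; agonist potency from rising luciferase signal of a Gal4-LXR reporter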
T3 sequence (P55055 whole entry): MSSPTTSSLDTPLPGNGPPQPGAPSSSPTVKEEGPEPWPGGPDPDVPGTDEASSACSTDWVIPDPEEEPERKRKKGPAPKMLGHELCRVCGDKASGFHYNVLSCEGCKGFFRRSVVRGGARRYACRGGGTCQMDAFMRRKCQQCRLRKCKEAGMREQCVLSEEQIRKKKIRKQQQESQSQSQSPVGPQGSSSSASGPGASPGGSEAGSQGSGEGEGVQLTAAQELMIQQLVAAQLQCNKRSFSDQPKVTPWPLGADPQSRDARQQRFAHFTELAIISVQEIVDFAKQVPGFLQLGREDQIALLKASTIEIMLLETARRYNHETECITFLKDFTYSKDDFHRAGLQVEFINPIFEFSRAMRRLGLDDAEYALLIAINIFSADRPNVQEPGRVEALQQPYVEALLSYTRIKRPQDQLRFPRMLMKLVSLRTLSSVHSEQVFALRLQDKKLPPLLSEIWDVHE

[23] = cells
[24] = blockade of melanocortin 4 receptor signaling – cell-based, plate reader, cherry pick, counter-screen for LGR2 antagonist project, dose response (AID 743444); type: functional;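 further: transfected HEK 293 cells stimulated with alpha-MSH peptide; potency of inhibitors of the alpha-MSH evoked signal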
[25] = A549 cell cytotoxicity, dose response, cytotoxicity control, plate reader, cherry-pick, antagonist series (AID 743412); type: functional, cell-based
[26] = blockers of bursicon-stimulated LGR2 cAMP reporter – cell-based, HEK293, CRE-luciferase reporter, cherry pick, set 2, dose response (AID 743343); type: functional;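 further: transfected cells were stimulated with diluted bursicon conditioned medium after compound addition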
[27] = toxicity toward HepG2 liver cells – cell-based, plate reader, cherry-pick, antagonist series, cytotoxicity control, dose response (AID 743416); type: functional
[28] = system: HEK293; assay: EBV LMP1 TES2 canonical NF-kB signalling blockers – cell-based, HEK293, luciferase, cherry-pick, dose response (AID 588343); type: functional; settings: Homo sapiens
[29] = viability loss in HEK293 cells – cell-based, plate reader, cherry-picked samples, cytotoxicity control, dose response (AID 743446); type: functional
[30] = biological target: T1, Heat shock factor protein 1; assay: decrease of HSF1-responsive luciferase luminescence – cell-based, NIH3T3, dose retest, confirmation (AID 2382); type: functional;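 further: NIH3T3 fibroblasts with HSF1-driven luciferase reporter stressed by proteasome inhibitor MG132; luminescence from HSF1-driven luciferase expression after 8 hours of MG132 stress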

T2 sequence (P78536 whole entry, the tested form may be a part): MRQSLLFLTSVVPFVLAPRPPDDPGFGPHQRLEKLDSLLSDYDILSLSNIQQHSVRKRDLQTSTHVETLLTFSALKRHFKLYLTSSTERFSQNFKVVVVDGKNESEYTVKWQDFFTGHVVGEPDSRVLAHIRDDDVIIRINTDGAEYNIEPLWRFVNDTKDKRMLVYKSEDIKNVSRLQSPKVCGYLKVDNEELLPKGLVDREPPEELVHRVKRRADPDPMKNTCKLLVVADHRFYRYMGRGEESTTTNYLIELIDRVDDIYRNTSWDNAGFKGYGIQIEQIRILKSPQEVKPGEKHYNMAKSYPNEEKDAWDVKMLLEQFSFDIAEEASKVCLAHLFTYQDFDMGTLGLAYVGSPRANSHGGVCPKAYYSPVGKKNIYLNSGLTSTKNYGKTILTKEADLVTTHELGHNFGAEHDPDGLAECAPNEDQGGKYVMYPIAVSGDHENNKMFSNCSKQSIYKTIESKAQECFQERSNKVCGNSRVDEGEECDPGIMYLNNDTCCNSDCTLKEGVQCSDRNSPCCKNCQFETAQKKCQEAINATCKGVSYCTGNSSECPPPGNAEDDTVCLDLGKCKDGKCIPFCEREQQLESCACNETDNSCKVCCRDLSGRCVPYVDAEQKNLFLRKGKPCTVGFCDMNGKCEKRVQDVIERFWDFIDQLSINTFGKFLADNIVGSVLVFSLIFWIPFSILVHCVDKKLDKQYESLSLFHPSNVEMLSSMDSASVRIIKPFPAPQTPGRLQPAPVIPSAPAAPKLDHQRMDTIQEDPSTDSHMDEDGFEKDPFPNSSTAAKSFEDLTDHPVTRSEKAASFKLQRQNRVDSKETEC
Chain of Paired box protein Pax-8 (Q06710 whole entry): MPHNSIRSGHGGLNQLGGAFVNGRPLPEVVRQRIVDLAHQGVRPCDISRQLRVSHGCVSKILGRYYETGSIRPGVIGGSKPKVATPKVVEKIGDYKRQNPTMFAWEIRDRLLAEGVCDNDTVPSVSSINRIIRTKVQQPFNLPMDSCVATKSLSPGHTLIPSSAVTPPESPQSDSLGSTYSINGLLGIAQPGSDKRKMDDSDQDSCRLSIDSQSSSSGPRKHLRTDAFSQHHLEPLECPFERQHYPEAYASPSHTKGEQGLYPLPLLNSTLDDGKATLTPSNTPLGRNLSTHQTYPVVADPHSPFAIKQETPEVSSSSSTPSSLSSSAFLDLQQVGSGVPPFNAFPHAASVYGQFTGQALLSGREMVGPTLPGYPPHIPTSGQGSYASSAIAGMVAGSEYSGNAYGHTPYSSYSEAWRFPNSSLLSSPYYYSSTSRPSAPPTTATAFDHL

O=C(Nc1ccc(OCC(F)(F)C(F)F)c(C(F)(F)F)c1)c1ccccc1O
AC50 [1]: 3.62 µM (active)
AC50 [2]: 4.78 µM (active)
AC50 [3]: 14.8 µM (active)
EC50 [4]: 67.4 µM (active)
AC50 [5]: 7.06 µM (active)
AC50 [6]: 6.09 µM (active)
AC50 [7]: 48.2 µM (active)
AC50 [8]: 56.2 µM (active)
AC50 [9]: 17.8 µM (active)

COc1cc(/C=N/NC(=O)c2cc(-c3ccccc3OC(C)C)nc3ccccc23)ccc1O
EC50 [10]: 13.7 µM (active)
IC50 [11]: > 69.5 µM (inactive)
IC50 [12]: > 69.5 µM (inactive)
EC50 [13]: > 120 µM (not active)
EC50 [14]: > 120 µM (not active)
IC50 [15]: > 25 µM (active)
CC50 [16]: 29.6 µM (active)
CC50 [17]: > 25 µM (active)

O=C(NC1=C(c2ccc(OC(F)(F)F)cc2)C(=O)c2ccccc2C1=O)c1ccco1
AC50 [18]: 21.1 µM (active)
AC50 [19]: 32.2 µM (active)

CCC(=O)N(Cc1ccco1)c1nc(C(=O)Nc2ccc(Cl)cc2)c(C)s1
IC50 [20]: > 69.5 µM (inactive)
IC50 [21]: > 69.5 µM (inactive)

Cn1c(=N)n(CC(=O)c2ccccc2)c2ccccc21
EC50 [22]: > 67.5 µM (inactive)
EC50 [13]: 8.25 µM (inconclusive)
EC50 [23]: > 67.5 µM (inactive)

CC(=O)NC1=C(c2ccccc2)C(=O)c2ccccc2C1=O
AC50 [18]: 8.87 µM (active)
AC50 [19]: 15.6 µM (active)

Cc1ccnc(NC(=O)c2ccc(C(=O)c3ccccc3)cc2)c1
AC50 [24]: 5.18 µM (active)
AC50 [25]: > 52 µM (inactive)
AC50 [26]: 7.49 µM (active)
AC50 [27]: > 52 µM (inactive)
AC50 [28]: 3.28 µM (active)
AC50 [29]: 31.2 µM (active)

O=C(c1ccc(-c2nc3ccccc3s2)s1)N1CCOCC1
EC50 [10]: 0.887 µM (active)
AC50 [24]: 2.04 µM (active)
EC50 [13]: 54 µM (active)
AC50 [25]: > 52 µM (inactive)
EC50 [14]: 1.42 µM (active)
AC50 [26]: 1.49 µM (active)
AC50 [27]: > 52 µM (inactive)
EC50 [30]: 1.07 µM (active)
AC50 [29]: 51.4 µM (active)
